In patent US8106218B2, “Pharmaceutical compounds” (Neuroscienze Pharmaness S.C. A R.L., priority 2004, dated 2012):
Entries after “also recorded” stand apart in the source; their conditions may differ. Read-outs that look alike come from different tables or passages of the source.

Columns and labels:
[1] = system: rat intestinal motility; assay: Intestinal motility, Upper Gut Transit Test, antagonism of the constipating action of WIN 55,212-2; type: in vivo; conditions: WIN alone 25%
Protocol: (§1) To evaluate the activity in vivo of the compounds (I) object of the present invention, functional tests were carried out directed to the evaluation of the effect of said compounds on the rat intestinal motility. It was indeed shown the involvement of the cannabinoidergic CB1 receptors in the intestinal motility regulation in rat (R. G. Pertwee et al; Br. J. Pharmacol.; 1996, 118, 2199-2205). In particular, the CB1 receptor agonists slacken the gastrointestinal motility; antagonist compounds of the same receptors have instead a prokinetic effect on the gastrointestinal transit (G. Colombo et al.; Eur. J. Pharmacol.; 1998, 344, 67-69; M. A. Casu et al.; Eur. J. Pharmacol.; 2003, 459, 97-105).
(§2) The evaluation of the constipating or prokinetic effect of the compounds was carried out by the Upper Gut Transit Test method on the basis of the procedure defined and ratified by Y. Nagakura et al.; Eur. J. Pharmacol.; 1996, 311, 67-72. The method, which allows to measure the motility of the stomach and of the first intestine tract (small or little intestine), requires: • the administration of the compound to be tested by i.p. route; • the administration of carmine red (marker not directly absorbable from the stomach) by intragastric route through a metal probe, after 20 minutes from the administration of the compound to be tested; • the rat sacrifice by cervical dislocation after a pre-fixed time (30 minutes) starting from the administration time; • the intestine explant from pylorus to the ileo-cecal valve; • the determination of the intestinal part crossed by the marker; • the data processing to determine the percentage of crossed part with respect to the total length of the small intestine.
With respect to the control (physiological solution or carrier wherein the compounds to be tested were solubilized or dispersed), the administration of CB1 agonist compounds implies an intestinal transit percentage reduction; an opposite effect is noticed in case of antagonist compounds. The latter are therefore capable to cancel the constipating effect of CB1 agonist compounds. […]

[2] = system: rat intestinal motility; assay: Intestinal motility, Upper Gut Transit Test, compound alone; type: in vivo; conditions: control 50%
Protocol: as §1, §2
With respect to the control (physiological solution or carrier wherein the compounds to be tested were solubilized or dispersed), the administration of CB1 agonist compounds implies an intestinal transit percentage reduction; an opposite effect is noticed in case of antagonist compounds. The latter are therefore capable to cancel the constipating effect of CB1 agonist compounds.
Each test was repeated on ten animals; the results reported in the Examples are the average of the results obtained with ten animals.

[3] = molecular target: T1, cannabinoidergic CB1 receptors (Rattus norvegicus, UniProt P20272); assay: Radioreceptorial binding, [3H]-CP-55,940 competition, rat brain membranes
T1 construct: the brain in toto (cerebellum excluded) and the spleen were rapidly dissected and maintained in ice; from tissue; host or cells: rat brain (cerebellum excluded), membrane preparation
T1 sequence (P20272 whole entry): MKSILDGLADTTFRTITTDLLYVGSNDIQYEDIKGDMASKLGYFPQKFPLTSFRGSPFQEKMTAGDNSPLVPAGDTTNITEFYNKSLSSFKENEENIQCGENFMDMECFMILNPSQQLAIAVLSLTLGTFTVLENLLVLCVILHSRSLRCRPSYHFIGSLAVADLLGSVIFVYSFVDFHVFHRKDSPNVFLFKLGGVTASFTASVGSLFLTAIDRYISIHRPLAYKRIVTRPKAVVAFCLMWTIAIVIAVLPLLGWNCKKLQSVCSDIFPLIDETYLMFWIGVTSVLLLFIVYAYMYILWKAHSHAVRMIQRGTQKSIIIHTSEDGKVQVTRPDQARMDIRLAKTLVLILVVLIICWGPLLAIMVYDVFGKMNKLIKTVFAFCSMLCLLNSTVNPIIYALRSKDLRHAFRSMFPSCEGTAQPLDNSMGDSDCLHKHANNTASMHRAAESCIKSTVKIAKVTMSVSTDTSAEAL
Protocol: (§3) The affinity of the synthesized compounds towards the cannabinoidergic CB1 and CB2 receptors was evaluated in vitro through radioreceptorial binding studies by utilizing the following method.
(§4) The receptorial binding technique allows indeed to establish if and with what affinity and specificity a determined compound binds itself to a particular receptor. To evaluate the possible affinity of a determined compound towards a particular receptor it is necessary to make to compete (in a particular preparation of the tissue in which those determined receptors are present) the compound to be tested with another compound whose affinity is known and whose molecule was rendered radioactive. […] The reading of the radioactivity present in the receptor-compound complex allows furthermore to calculate with extreme precision the amount of compound bound to the receptor. […] By repeating the same experimental scheme it is possible to evaluate the affinity of the compound towards other kinds of receptors and establish then the specificity degree.
(§5) Food and water were available ad libitum.
(§6) The animals were sacrificed by cervical dislocation, the brain in toto (cerebellum excluded) and the spleen were rapidly dissected and maintained in ice.
(§7) The tissue was homogenized in 15 volumes (weight/volume) of TME buffer (50 mM Tris, 1 mM EDTA e 3 mM MgCl2, pH 7.4) by an Ultra-Turrax and centrifuged for 10 minutes at 1086×g in a centrifuge cooled at 4° C. The resulting supernatant was centrifuged at 45,000×g for 30 min at 4° C. by using a Beckman SW41 rotor and the final pellet was resuspended in 50 volumes of TME.
(§8) The obtained membranes (50-80 μg of proteins) were incubated in the presence of 1 nM di[^3H]-CP55,940 for 1 h at 30° C. in a final volume of 0.5 ml of TME buffer containing 5 mg/ml of bovine serum albumin (BSA). The non specific binding was measured in the presence of CP55,940 at the 1 μM concentration.
(§9) All the experiments were carried out in polypropylene test tubes pretreated with Sigma-Cote (Sigma Chemical Co. Ltd., Poole, UK) to reduce the non specific binding.
(§10) For the building of the competitive inhibition binding curves eight different concentrations of each compound were used.
(§11) Incubation was interrupted by addition of TME buffer (at 4° C.) containing 5 mg/ml of BSA and filtration under vacuum through Whatman GFC filters pretreated with 0.5% of polyethylamine (PEI) and by using a filtering apparatus (Brandell, Gaithersburg, Md., USA). Filters were washed 3 times with 5 ml of Tris HCl buffer (pH 7.4, 4° C.) containing 1 mg/ml of BSA and singly placed in plastic vials containing 4 ml of scintillating liquid (Ultima Gold MV, Packard).
(§12) The radioactivity present in the filters was measured by a scintillator spectrophotometer (Tricarb 2100, Packard, Meridien, USA).
(§13) The protein determination was carried out by the Bradford method by using the protocol and the reactants supplied by Bio-Rad (Milano, Italia).
(§14) The affinity of the compounds towards the CB1 and CB2 receptors was expressed in Ki terms.

[4] = system: rat; conditions: concluded from the hypothermia tests
Protocol: The rectal temperature in the rat was determined by an electronic thermometer inserted at a 2 mm depth. The measurements were carried out on rats acclimated for one hour. […]
Each test was repeated on ten animals; the reported results are the average of the results obtained with the ten animals.

[5] = molecular target: T2, cannabinoidergic CB2 receptors (Rattus norvegicus, UniProt Q9QZN9); assay: Radioreceptorial binding, [3H]-CP-55,940 competition, rat spleen membranes
T2 construct: the brain in toto (cerebellum excluded) and the spleen were rapidly dissected and maintained in ice; from tissue; host or cells: rat spleen, membrane preparation
T2 sequence (Q9QZN9 1-360): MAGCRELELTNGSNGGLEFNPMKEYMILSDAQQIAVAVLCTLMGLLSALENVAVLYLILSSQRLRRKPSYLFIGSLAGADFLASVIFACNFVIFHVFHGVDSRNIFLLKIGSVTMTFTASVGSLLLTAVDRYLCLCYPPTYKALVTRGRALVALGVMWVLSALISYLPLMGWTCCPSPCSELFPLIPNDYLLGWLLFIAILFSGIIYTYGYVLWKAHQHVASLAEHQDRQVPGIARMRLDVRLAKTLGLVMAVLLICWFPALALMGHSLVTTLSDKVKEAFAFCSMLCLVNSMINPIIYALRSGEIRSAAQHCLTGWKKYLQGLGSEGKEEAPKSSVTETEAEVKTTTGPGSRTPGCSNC
Protocol: as §3, §4, §5, §6, §7, §8, §9, §10, §11, §12, §13, §14

Row | Structure (SMILES) | melting point | intestinal portion run by the marker with respect to the total intestine length ([1]; compound 1.5 mg/kg before WIN 55,212-2 0.5 mg/kg) | intestinal portion run by the marker with respect to the total intestine length ([2]; compound 5 mg/kg i.p.) | Ki ([3]; rat brain membranes, 1 nM [3H]-CP55,940, read-out: CB1 (brain) Ki) | passage of the hemato-encephalic barrier [4] | Ki ([5]; rat spleen membranes, 1 nM [3H]-CP55,940, read-out: CB2 (spleen) Ki) | intestinal portion run by the marker with respect to the total intestine length ([1]; compound 0.3 mg/kg before WIN 55,212-2 0.5 mg/kg) | intestinal portion run by the marker with respect to the total intestine length ([2]; compound 1 mg/kg i.p.) | Ki [3] | Ki [5]
1 | O=C(NN1CCCC1)c1nn(-c2ccc(Cl)cc2Cl)c2c1CCc1sc(Cl)cc1-2 [Example 3.5, N-pyrrolidinyl-7-chloro-1-(2′,4′-dichlorophenyl)-4,5-dihydro-1H-thieno[2,3-g]indazol-3-carboxamide] | 228 °C | 50% | 67% | 137 ± 12 nM | not able to pass the hemato-encephalic barrier | 243 ± 14 nM | – | – | – | –
2 | O=C(NN1CCCCCC1)c1nn(-c2ccc(Cl)cc2Cl)c2c1CCc1sc(Cl)cc1-2 [Example 3.6, N-homopiperidinyl-7-chloro-1-(2′,4′-dichlorophenyl)-4,5-dihydro-1H-thieno[2,3-g]indazol-3-carboxamide] | 181 to 182 °C | – | 75% | – | unable to pass the hemato-encephalic barrier; also recorded: not capable to pass the hemato-encephalic barrier | – | 50% | 65% | 9.83 ± 0.72 nM | 20.8 ± 1.4 nM
